# Measured values reported in patent publication US10919941B2, “Functional lipid constructs” (KODE BIOTECH LIMITED, priority 2007, dated 2021).
# No end group written: not given here.
# What was measured:
# [1] = test system: Miltenberger Antibody Positive Panel; assay: Reactivity of modified RBCs against the Miltenberger Antibody Positive Panel; type: cell-based, human; set-up: key to score vs panel 15 TAP2 / score vs panel 4 T7202 / score vs panel 8 T5896 / score vs panel 2 T217 / score vs panel 3 T165 / score vs panel 14 TAP1 / score vs panel 10 Mia / score vs panel 11 Mur / score vs panel 12 Gam / score vs panel 6 T6025 / score vs panel 7 T8445 / score vs panel 9 MIII / score vs panel 13 BoxH / reactivity with Panel Serum #7 (T8445) / agglutination score, Panel Serum #7 (T8445): 0 or ‘−’ no agglutination; 0 or ‘−’ no agglutination; 1+ or 3=very weak agglutination; 1+ or 3=very weak agglutination; 2+ or 5=weak agglutination; 2+ or 5=weak agglutination; 3+ or 8=moderate strong agglutination; 3+ or 8=moderate strong agglutination; 4+ or 10/12=strong agglutination; 4+ or 10/12=strong agglutination; 4+ or 10/12=strong agglutination
# Description: (§1) Red blood cells are modified by mixing 1 part by volume of washed packed red blood cells with 1 part by volume of peptide-lipid construct dispersed at a concentration of 10 to 1000 pg/ml in cell media (Celpresol™).
# (§2) The suspensions are either: • 1. incubated for 2 hours at 37° C. before being washed and suspended in a cell medium for serological analysis at a concentration of 0.8 to 3% (Method 1); or • 2. incubated for 3 to 4 hours at room temperature (circa 25° C.) followed by 18 hours at 4° C. before being washed and suspended in a cell medium for serological analysis at a concentration of 0.8 to 3% (Method 2).
# (§3) Serological reactions are graded or scored by either of two established systems (0 or ‘−’ no agglutination, 1+ or 3=very weak agglutination, 2+ or 5=weak agglutination, 3+ or 8=moderate strong agglutination, 4+ or 10/12=strong agglutination)
# (§4) Serological platforms used are Tube (addition of reagents and reactants into plastic or glass serology tubes and after appropriate incubations, washing and centrifugation observing reactions macroscopically by eye and a 10× magnification eyepiece and scoring) and BioVue™ (addition of reactants into cassettes containing beads (including some reactants) and after appropriate incubations and centrifugation observing the reaction patterns trapped within the Gel matrix). BioVue is the serological column agglutination platform of Ortho-Clinical Diagnostics. Diamed is the serological column agglutination platform of Diamed AG.
# [2] = test system: natural Mi III antibody reactive human serums; assay: Positive serum reactivity of modified RBCs in the field; type: cell-based; set-up: key: 0 or ‘−’ no agglutination; 0 or ‘−’ no agglutination; 1+ or 3=very weak agglutination; 1+ or 3=very weak agglutination; 2+ or 5=weak agglutination; 2+ or 5=weak agglutination; 3+ or 8=moderate strong agglutination; 3+ or 8=moderate strong agglutination; 4+ or 10/12=strong agglutination; 4+ or 10/12=strong agglutination; 4+ or 10/12=strong agglutination; conditions: 22 at 50, 17 and 24 at 200 μg/ml; 3 h RT then 18 h 4° C.
# Description: as §2, §3
# [3] = test system: TAP1 serum (Taiwan Miltenberger antibody positive sample); assay: Anti-MUT serum (TAP1) reactivity of modified RBCs (saline and AHG); type: cell-based, human; set-up: key: 0 or ‘−’ no agglutination; 0 or ‘−’ no agglutination; 1+ or 3=very weak agglutination; 1+ or 3=very weak agglutination; 2+ or 5=weak agglutination; 2+ or 5=weak agglutination; 3+ or 8=moderate strong agglutination; 3+ or 8=moderate strong agglutination; 4+ or 10/12=strong agglutination; 4+ or 10/12=strong agglutination; 4+ or 10/12=strong agglutination
# Description: as §2, §3
# antibody negative serums = assay: False positive reactions of modified RBCs with antibody negative serums/plasma; type: cell-based, human; set-up: key to Reaction score BioVue AHG, PAC samples 1-46, 49, 50, 52, 53 / Reaction score BioVue AHG, PAC sample 47 / Reaction score BioVue AHG, PAC sample 48 / Reaction score BioVue AHG, PAC sample 51 / agglutination score, T series serum 2 / agglutination score, T series serum 42 / agglutination score, T series serum 63 / agglutination score, T series serum 62 / agglutination score, T series serum 7 / agglutination score, T series serum 20 / agglutination score, T series serum 48 / agglutination score, T series serum 22 / agglutination score, T series serum 39 / agglutination score, T series serum 23 / agglutination score, T series serum 30 / agglutination score, T series serum 4 / agglutination score, T series serum 31 / agglutination score, T series serum 44 / agglutination score, T series serum 61 / agglutination score, T series serum 18 / agglutination score, T series serum 21 / agglutination score, T series serum 28 / agglutination score, T series serum 55 / agglutination score, false positive serum T18 / agglutination score, false positive serum T21 / agglutination score, false positive serum T28 / agglutination score, false positive serum T55 / agglutination score, false positive serum T78 / agglutination score, false positive serum T92: 0 or ‘−’ no agglutination; 0 or ‘−’ no agglutination; 1+ or 3=very weak agglutination; 1+ or 3=very weak agglutination; 2+ or 5=weak agglutination; 2+ or 5=weak agglutination; 3+ or 8=moderate strong agglutination; 3+ or 8=moderate strong agglutination; 4+ or 10/12=strong agglutination; 4+ or 10/12=strong agglutination; 4+ or 10/12=strong agglutination
# [4] = test system: Miltenberger antibody positive sera; assay: BioVue AHG card column agglutination serology of modified red blood cells; type: cell-based, human; set-up: key: 0 or ‘−’ no agglutination; 0 or ‘−’ no agglutination; 1+ or 3=very weak agglutination; 1+ or 3=very weak agglutination; 2+ or 5=weak agglutination; 2+ or 5=weak agglutination; 3+ or 8=moderate strong agglutination; 3+ or 8=moderate strong agglutination; 4+ or 10/12=strong agglutination; 4+ or 10/12=strong agglutination; 4+ or 10/12=strong agglutination; conditions: construct 50 μg/ml
# Description: as §1, §2, §3, §4
# [5] = cells modified at 50 μg/ml, 2 hour 37° C., BioVue AHG cards
# [6] = construct 50 μg/ml (2 hours, 37° C.)
# [7] = larger series = 102, cells modified at 50 μg/ml, 2 hour 37° C., BioVue AHG cards
substance,measurement,setting,value
"M17: DOPE peptide-lipid construct: Mur peptide TYPAHTANEV, leader c, spacer CMG(2) (TYPAHTANEVC; also: DOPE peptide-lipid construct via leader Cys, spacer CMG(2))",score vs panel 2 T217,"[1]; Table 9, construct 100 μg/ml",0
same,score vs panel 3 T165,"[1]; Table 9, construct 100 μg/ml",10
same,score vs panel 4 T7202,"[1]; Table 9, construct 100 μg/ml",8
same,score vs panel 6 T6025,"[1]; Table 9, construct 100 μg/ml",10
same,score vs panel 7 T8445,"[1]; Table 9, construct 100 μg/ml",10
same,score vs panel 8 T5896,"[1]; Table 9, construct 100 μg/ml",0
same,score vs panel 9 MIII,"[1]; Table 9, construct 100 μg/ml",0
same,score vs panel 10 Mia,"[1]; Table 9, construct 100 μg/ml",0
same,score vs panel 11 Mur,"[1]; Table 9, construct 100 μg/ml",0
same,score vs panel 12 Gam,"[1]; Table 9, construct 100 μg/ml",0
same,score vs panel 15 TAP2,"[1]; Table 9, construct 100 μg/ml",0
same,"agglutination score, Panel Serum #7 (T8445)",[1]; [5],10
same,reactivity with Panel Serum #7 (T8445),[1]; [6],10
same,score vs Mi III reactive serum 912485657-9,[2],3
same,score vs Mi III reactive serum 914146821-8,[2],10
same,score vs Mi III reactive serum 922390844-5,[2],12
same,score vs Mi III reactive serum 926190919-0,[2],3
same,score vs Mi III reactive serum 926555294-1,[2],0
same,score vs Mi III reactive serum 927175131-4,[2],0
same,score vs Mi III reactive serum 927299700-1,[2],0
same,score vs Mi III reactive serum 927516053-2,[2],0
same,score vs Mi III reactive serum 927619701-8,[2],3
same,score vs Mi III reactive serum 932360876-4,[2],0
same,score vs Mi III reactive serum 932467774-5,[2],0
same,score vs Mi III reactive serum 932809044-1,[2],8
same,score vs Mi III reactive serum 942223755-1,[2],5
same,score vs Mi III reactive serum 942404708-4 (row interpreted Mur),[2],5
same,score vs Mi III reactive serum 942404708-4 (row interpreted other),[2],0
same,score vs Mi III reactive serum 942421413-0,[2],5
same,score vs Mi III reactive serum 942423002-4,[2],0
same,score vs Mi III reactive serum 942433813-3,[2],8
same,score vs Mi III reactive serum 942433855-3,[2],8
same,score vs Mi III reactive serum 942442720-2,[2],5
same,score vs Mi III reactive serum 942448627-8,[2],0
same,score vs Mi III reactive serum 942753165-4,[2],8
same,score vs Mi III reactive serum 942762589-1,[2],0
same,score vs Mi III reactive serum 9322338631,[2],10
same,score vs Mi III reactive serum 9325490091,[2],5
same,score vs Mi III reactive serum 9327986660,[2],3
same,score vs Mi III reactive serum 9328118428,[2],10
same,score vs Mi III reactive serum 9328154853,[2],10
same,score vs Mi III reactive serum 9328791834,[2],3
same,score vs Mi III reactive serum 9424248012,[2],0
same,score vs Mi III reactive serum 9424292604,[2],8
same,score vs Mi III reactive serum 9424396133,[2],0
same,score vs Mi III reactive serum 9425256505,[2],8
same,score vs Mi III reactive serum 9427455417,[2],5
same,score vs Mi III reactive serum 9427613497,[2],0
same,score vs Mi III reactive serum 9427615156,[2],0
same,score vs Mi III reactive serum S-3,[2],3
same,"TAP 1 Serum, AHG score",[3]; construct 50 μg/ml,0
same,"TAP 1 Serum, Saline score",[3]; construct 50 μg/ml,0
same,% positive,"antibody negative serums; T series reactives (n = 58), BioVue AHG cards",33%
same,"agglutination score, T series serum 2",antibody negative serums; [5],10
same,"agglutination score, T series serum 4",antibody negative serums; [5],8
same,"agglutination score, T series serum 7",antibody negative serums; [5],8
same,"agglutination score, T series serum 18",antibody negative serums; [5],12
same,"agglutination score, T series serum 20",antibody negative serums; [5],8
same,"agglutination score, T series serum 21",antibody negative serums; [5],12
same,"agglutination score, T series serum 22",antibody negative serums; [5],8
same,"agglutination score, T series serum 23",antibody negative serums; [5],3
same,"agglutination score, T series serum 28",antibody negative serums; [5],12
same,"agglutination score, T series serum 30",antibody negative serums; [5],3
same,"agglutination score, T series serum 31",antibody negative serums; [5],8
same,"agglutination score, T series serum 39",antibody negative serums; [5],5
same,"agglutination score, T series serum 42",antibody negative serums; [5],10
same,"agglutination score, T series serum 44",antibody negative serums; [5],10
same,"agglutination score, T series serum 48",antibody negative serums; [5],8
same,"agglutination score, T series serum 55",antibody negative serums; [5],12
same,"agglutination score, T series serum 61",antibody negative serums; [5],10
same,"agglutination score, T series serum 62",antibody negative serums; [5],8
same,"agglutination score, T series serum 63",antibody negative serums; [5],10
same,"agglutination score, false positive serum T18",antibody negative serums; [7],12
same,"agglutination score, false positive serum T21",antibody negative serums; [7],12
same,"agglutination score, false positive serum T28",antibody negative serums; [7],12
same,"agglutination score, false positive serum T55",antibody negative serums; [7],12
same,"agglutination score, false positive serum T78",antibody negative serums; [7],12
same,"agglutination score, false positive serum T92",antibody negative serums; [7],12
same,number of negative serums with score 0,antibody negative serums; n = 102 negative serum samples,65
same,number of negative serums with score 3,antibody negative serums; n = 102 negative serum samples,3
same,number of negative serums with score 8-5,antibody negative serums; n = 102 negative serum samples,18
same,number of negative serums with score 12-10,antibody negative serums; n = 102 negative serum samples,17
same,share of negative serums with score 0,antibody negative serums; n = 102 negative serum samples,64%
same,share of negative serums with score 3,antibody negative serums; n = 102 negative serum samples,3%
same,share of negative serums with score 8-5,antibody negative serums; n = 102 negative serum samples,18%
same,share of negative serums with score 12-10,antibody negative serums; n = 102 negative serum samples,17%
"M33: DOPE peptide-lipid construct: MUTK peptide QTNDKHKRDTY, leader c, spacer CMG(2) (QTNDKHKRDTYC; also: DOPE peptide-lipid construct via leader Cys, spacer CMG(2))",BioVue score vs TAP1,[4],3
same,BioVue score vs positive sample 2 T217 (T),[4],0
same,BioVue score vs positive sample 3 T165 (Mur),[4],0
same,BioVue score vs positive sample 4 T7202 (M),[4],0
same,BioVue score vs positive sample 8 T5896 (M + K + Mur),[4],0
same,score vs panel 2 T217,"[1]; Table 8, construct 50 μg/ml",0
same,score vs panel 3 T165,"[1]; Table 8, construct 50 μg/ml",0
same,score vs panel 4 T7202,"[1]; Table 8, construct 50 μg/ml",0
same,score vs panel 8 T5896,"[1]; Table 8, construct 50 μg/ml",0
same,score vs panel 14 TAP1,"[1]; Table 8, construct 50 μg/ml",8
same,score vs panel 15 TAP2,"[1]; Table 8, construct 50 μg/ml",0
same,Reactivity with anti-MUT serum TAP1,[3]; [6],3
